Entries after “also recorded” stand apart in the source; their conditions may differ. Read-outs that look alike come from different tables or passages of the source.
Tests used:
CTGF promoter = assay: CTGF-luciferase reporter in RaVSMCs; type: cell-based, rat
Text: (§1) Activation of TEAD transcription factors in response to YAP binding induces the expression of many genes that encode proteins known to be involved in promoting cell proliferation and migration (see Supplement Figure 14). The best characterized TEAD target genes associated with the promotion of cell proliferation and migration are CCN1 and CTGF.[39],[59],[60] […] We therefore tested whether CPD3 inhibited the promoter activity of known TEAD target genes, CCN1 and CTGF, in the HeLa transformed cell line and primary rat VSMCs (RaVSMCs). Cells were transfected with plasmids expressing bioluminescent firefly luciferase reporter genes under the control of either the CCN1 or CTGF promoter regions. […] As both CCN1 and CTGF are classical TEAD target genes, this is consistent with the inhibition of TEAD activity by CPD3.
Figure 9 Compound 3.1 inhibits TEAD target gene expression, cell proliferation, and cell migration in RaVSMCs. […] Total RNA was analyzed for mRNA levels of TEAD-target genes (D) or constitutive housekeeping genes (E) by qRT-PCR. […] Total cell lysates were analyzed for CCN1 protein expression by Western blotting (F). […] RaVSMCs (I) or HuVSMC (J) were treated with indicated concentrations of compound 3.1 and cell migration quantified using IncuCyte real time migration assay (n = 4). […]

HeLa cells = assay: Live/dead cell viability assay (ethidium homodimer-1) in HeLa cells; type: cell-based
Protocol: Cell viability was quantified using the live/dead viability/cytotoxicity assay standard protocol (Invitrogen). Maximum cell death was quantified by incubating cells for 10 min with 0.1% Triton-X, followed by incubation with 0.4 μM ethidium homodimer-1 for an additional 10 min. Fluorescence was measured using a GloMax Discover multiplate reader (Promega).
Supplement Figure 3: Effect of shortlisted compounds on cell viability
HeLa cells transduced with TEAD-NLUC reporter were treated with indicated compounds at 100 µM for 6 hours (n=3). Cell viability was quantified by staining with 0.4 µM ethidium homodimer-1 and ethidium homodimer-1 uptake quantified by measuring fluorescence at 645 nm using a Glomax Discover plate reader.
(§2) (1 picture or pasted object on this page, not shown here)
Supplement Figure 6: Effect of CPD3, CPD3.1, CPD3.2 and CPD 3.3 on cell viability HeLa cells transduced with TEAD-NLUC reporter were treated with indicated concentrations of CPD3, CPD3.1, CPD3.2 and CPD 3.3 for 6 hours (n=3). Cell viability was quantified by staining with 0.4 µM ethidium homodimer-1 and ethidium homodimer-1 uptake quantified by measuring fluorescence at 645 nm using a Glomax Discover plate

nano-luciferase enzyme = target: T1, nano-luciferase enzyme (Oplophorus gracilirostris, UniProt Q9GV45, A31E/A60N/A81I/F95D/I117V/K70R/L54V/L99Q/M102K/N193R/P142E/Q151K/Q38R/Q45L/V71I/Y165I); assay: Direct inhibition of nanoluciferase enzyme in conditioned media; type: biochemical; details: conditioned media containing nano-luciferase, indicated concentrations
T1 construct: heterologous secretion signal (sec-Nluc) (N); expressed in transfected cells; probably the TEAD-NLUC HeLa reporter cells
Protocol: Cell conditioned media containing nano-luciferase enzyme was incubated with the indicated
concentrations of CPD3 (A) or CPD3.1 (B) and nano-luciferase activity assayed.
as §2

[1] = tested on: TEAD-dependent transcriptional activity; assay: 8xTEAD secreted nanoluciferase (TEAD-NLUC) reporter assay in HeLa cells; type: cell-based, human; details: HeLa TEAD-NLUC, 6 h
Text: The shortlisted sets of 16 compounds were first assayed for their ability to inhibit TEAD-dependent transcriptional activity in HeLa cells that had been transduced with a recombinant lentiviral vector expressing secreted bioluminescent nanoluciferase (NLUC) reporter gene enzyme, which is expressed under the control of a promoter region containing eight TEAD DNA-binding elements (TEAD-NLUC).
Compounds were initially screened for ability to inhibit TEAD-dependent transcriptional activity in HeLa cells transduced with a lentiviral vector expressing secreted nanoluciferase under the control of multimerized TEAD consensus elements (5′-[…]-3′). 8xTEAD NanoLuc was generated by cloning the 8xTEAD promoter from the 8xTEAD-Luc plasmid (Addgene #34615) into the pENTR gateway entry vector (Promega). This was then recombined into pLNT-sec-Nluc-2A-eGFP destination vector (supplied by Tristan McKay; University of Manchester). Lentiviruses were generated by Viafect-mediated co-transfection of pLNT8x-TEAD-sec-Nluc-2A-eGFP, Δ8.9, and VSV-G vectors into HEK293T cells (ATCC), and lentiviral-containing culture supernatants were used to infect HeLa cells in the presence of 6 μg/mL polybrene. For compound screening, 8xTEAD NanoLuc-transduced HeLa cells were seeded at 2 × 10^4 cells/well in 96-well plates. After 48 h, the cells were washed in PBS and incubated with test compounds at the indicated concentrations for 2 h. The cells were washed again in PBS and incubated with the compound for a further 4 h. Conditioned culture medium (50 μL) was assayed for secreted nanoluciferase activity using NanoGlo activity assays kit (Promega) and a Glomax Discover luminometer.

[2] = tested on: TEAD-independent minimal TNT1 gene promoter; assay: Minimal TNT1 promoter-luciferase (minP-LUC) reporter in HeLa cells; type: cell-based, human; details: 6 h
Text: as §1
TNT1-minP reporter containing the Troponin-T minimal promoter was generated by digesting 8xGTIIC-luciferase plasmid (Addgene #34615) with Kpn1 and BglII to remove the TEAD elements, followed by blunt end re-ligation. A 2.177 kb fragment of the human CCN1 promoter containing two proximal TEAD elements (Hg19;chr1:86044316–chr1:86046493) was described previously[39] and cloned into pGL4-luciferase (Promega). […]

T1 sequence (Q9GV45 other isoform, or with tags, fused parts or gaps with the stated changes): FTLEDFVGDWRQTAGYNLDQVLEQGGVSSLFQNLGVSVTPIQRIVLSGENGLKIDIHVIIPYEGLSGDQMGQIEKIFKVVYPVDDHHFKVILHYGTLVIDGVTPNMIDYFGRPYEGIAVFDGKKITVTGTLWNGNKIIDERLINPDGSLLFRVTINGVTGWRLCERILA

Structure (SMILES) | IC50 (CTGF promoter; Rattus norvegicus, 6 hr, read-out: IC50, CTGF-LUC (as printed in Figure 9C)) [µM] | effect on cell viability (HeLa cells) | direct inhibitory effect on NLUC enzymatic activity (nano-luciferase enzyme) | concentration at which TEAD-dependent NLUC secretion was significantly inhibited [1] [µM] | activity of TEAD-independent minimal TNT1 promoter (minP-LUC) [2] | CTGF-luciferase reporter gene activity (CTGF promoter; 6 h, indicated concentrations) | effect on cell viability (HeLa cells; 100 µM, 6 hours, HeLa TEAD-NLUC cells) | effect on cell viability (HeLa cells; indicated concentrations, 6 hours, HeLa (Supplement Figure 6)) | IC50 ([1]; Homo sapiens, HeLa, read-out: IC50, TEAD-dependent NLUC secretion) [µM]
Cc1ccc2c(c1)c1c3n2CCNC3CCC1 (stereo not drawn) [CPD3.1] | 58 | without affecting cell viability | do not non-specifically inhibit nano-luciferase; also recorded: without having any direct inhibitory effect on NLUC activity | 20 | without affecting expression |  |  |  | 
Cc1ccc2c(c1)c1c3n2CCN(CC(O)CN2CCN(C(=O)c4ccco4)CC2)C3CCC1 (stereo not drawn) [CPD3] |  |  | do not non-specifically inhibit nano-luciferase; also recorded: did not affect cell viability (Supplement Figure 6) or have any direct inhibitory effect on NLUC enzymatic activity | 60 | not inhibited by any concentration | strong and significant dose-dependent inhibition | without significantly affecting cell viability | did not affect cell viability | > 110

Source: article PMC6701825, “Antiproliferative and Antimigratory Effects of a Novel YAP–TEAD Interaction Inhibitor Identified Using in Silico Molecular Docking” (Journal of Medicinal Chemistry, 2019)
